The text below walks through data of patent publication US20240425524A1, “SPIROTRICYCLE RIPK1 INHIBITORS AND METHODS OF USES THEREOF” (Merck Sharp & Dohme LLC, priority 2021, published 2024).

Molecules are shown by their SMILES.

In the assay the target is RIPK1 (Homo sapiens (Human), UniProt Q13546). Kind of assay: RIPK1-ADP-Glo Enzymatic Assay. The assay is classed as biochemical. The conditions noted are these: recombinant GST-RIPK1 kinase domain (residues 1-327), 25 nM, ten-point titration, 30 minutes pre-incubation. The protocol: The enzymatic activity of RIPK1 was measured using an assay derived from ADP-Glo kit (™Promega), which provides a luminescent-based ADP detection system. Specifically, the ADP generated by RIPK1 kinase was proportionally detected as luminescent signals in a homogenous fashion. In this context, the assessment of the inhibitory effect of small molecules (EC50) was measured by the effectiveness of the compounds to inhibit the ATP to ADP conversion by RIPK1.
RIPK1, sequence (Q13546 1-327): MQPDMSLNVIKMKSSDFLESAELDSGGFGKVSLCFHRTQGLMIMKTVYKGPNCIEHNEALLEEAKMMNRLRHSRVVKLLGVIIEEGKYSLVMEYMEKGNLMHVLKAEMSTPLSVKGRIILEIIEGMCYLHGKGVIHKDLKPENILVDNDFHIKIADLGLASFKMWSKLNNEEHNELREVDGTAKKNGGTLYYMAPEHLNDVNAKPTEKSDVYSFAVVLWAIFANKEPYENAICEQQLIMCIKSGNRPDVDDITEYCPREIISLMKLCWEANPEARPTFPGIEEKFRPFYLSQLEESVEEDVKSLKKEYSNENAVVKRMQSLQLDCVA
In this assay, the potency (EC50) of each compound was determined from a ten-point (1:3 serial dilution: top compound concentration of 100000 nM) titration curve using the following outlined procedure. To each well of a white ProxiPlus 384 well-plate, 30 nL of compound (1% DMSO in final assay volume of 3 μL) was dispensed, followed by the addition of 2 μL of 1x assay buffer (25 mM Hepes 7.3, 20 mM MgCl2, 50 mM NaCl, 1 mM DTT, 0.005% Tween20, and 0.02% BSA) containing 37.5 nM of GST-RIPK1 (recombinant GST-RIPK1 kinase domain (residues 1-327) enzyme produced from baculovirus-transfected Sf21 cells: MW=62 kDa). Plates were placed in an ambient temperature humidified chamber for a 30 minutes pre-incubation with compound. Subsequently, each reaction was initiated by the addition of 1 μL 1× assay buffer containing […] dephosphorylated-MBP substrate. The final reaction in each well of 3 μL consists of 25 nM of GST-RIPK1, 300 µM ATP, and 3 μM dephosphorylated-MBP. Kinase reactions were allowed to proceed for 150 minutes prior to adding ADP-Glo reagents per Promega's outlined kit protocol. Dose-response curves were generated by plotting percent effect (% product conversion: Y-axis) vs. Logio compound concentrations (X-axis). EC50 values were calculated using a non-linear regression, four-parameters sigmoidal dose-response model and are provided for example compounds of the invention (labeled “RIPK1 EC50 (nM)” throughout the above examples).
A general note: In ADP-Glo the light output rises with the ADP produced.
For the molecule `O=C1N2[C@H](c3cc(F)cc(F)c3)CCN2CC12CCN(c1cccc(F)n1)CC2` [Example 1.71, (S)-7′-(3,5-difluorophenyl)-1-(6-fluoropyridin-2-yl)dihydro-1′H,3′H,5′H-spiro[piperidine-4,2′-pyrazolo[1,2-a]pyrazol]-1′-one], the EC50 is 0.028 µM.

On to `O=C1N2[C@H](c3cc(F)cc(F)c3)CCN2CC12CCN(c1cc(-c3ccco3)ccn1)CC2` [Example 2.22, (S)-7′-(3,5-difluorophenyl)-1-(4-(furan-2-y1)pyridin-2-yl)dihydro-1′H,3′H,5′H-spiro[piperidine-4,2′-pyrazolo[1,2-a]pyrazol]-1′-one], for which the EC50 is 0.132 µM.

For `O=C(c1cccc(F)c1F)N1CCC2(CC1)CN1CC[C@@H](c3cc(F)cc(F)c3)N1C2=O` [Example 4.29, (S)-1-(2,3-difluorobenzoyl)-7′-(3,5-difluorophenyl) dihydro-1′H,3′H,5′H-spiro[piperidine-4,2′-pyrazolo[1,2-a]pyrazol]-l′-one], the EC50 worked out at 0.023 µM.

In the case of `O=C1N2[C@H](c3cc(F)cc(F)c3)CCN2CC12CCN(c1nccn3nccc13)CC2` [Example 2.11, (S)-7′-(3,5-difluorophenyl)-1-(pyrazolo[1,5-a]pyrazin-4-y1)dihydro-l′H,3′H,5′H-spiro[piperidine-4,2′-pyrazolo[1,2-a]pyrazol]-1′-one], the EC50 was 0.034 µM.

As to `O=C1N2[C@H](c3cc(F)cc(F)c3)CCN2CC12CCN(Cc1ccc3ccccc3n1)CC2` [Example 6.1, (S)-7′-(3,5-difluorophenyl)-1-(quinolin-2-ylmethyl) dihydro-1′H,3′H,5′H-spiro [piperidine-4,2′-pyrazolo[1,2-α]pyrazol]-1′-one], the EC50 came to 0.706 µM.

Consider `O=C1N2[C@H](c3cc(F)cc(F)c3)CCN2CC12CCN(c1cc(N3CCCC3)ncn1)CC2` [Example 1.69, (S)-7′-(3,5-difluorophenyl)-1-(6-(pyrrolidin-1-yl)pyrimidin-4-yl)dihydro-1′H,3′H,5′H-spiro[piperidine-4,2′-pyrazolo[1,2-a]pyrazol]-l′-one], for which the EC50 is 0.296 µM.

In the case of `Cc1cnn(-c2cnc(N3CCC4(CC3)CN3CC[C@@H](c5cc(F)cc(F)c5)N3C4=O)cn2)c1` [Example 2.15, (S)-7′-(3,5-difluorophenyl)-1-(5-(4-methyl-1H-pyrazol-1-yl)pyrazin-2-yl)dihydro-l′H,3′H,5′H-spiro[piperidine-4,2′-pyrazolo[1,2-a]pyrazol]-1′-one], the EC50 is 0.08 µM.

Take `Cc1ccn(-c2cccc(N3CCC4(CC3)CN3CC[C@@H](c5cc(F)cc(F)c5)N3C4=O)n2)n1` [Example 2.13, (S)-7′-(3,5-difluorophenyl)-1-(6-(3-methyl-1H-pyrazol-1-yl)pyridin-2-yl)dihydro-1′H,3′H,5′H-spiro[piperidine-4,2′-pyrazolo[1,2-a]pyrazol]-1′-one]: the EC50 amounted to 0.017 µM.

As to `O=C(c1cc(F)ccc1Cl)N1CCC2(CC1)CN1CC[C@@H](c3cc(F)cc(F)c3)N1C2=O` [Example 4.20, (S)-1-(2-chloro-5-fluorobenzoyl)-7′-(3,5-difluorophenyl) dihydro-1′H,3′H,5′H-spiro[piperidine-4,2′-pyrazolo[1,2-a]pyrazol]-l′-one], the EC50 is 0.05 µM.

With `Cc1c(Cl)ncnc1N1CCC2(CC1)CN1CC[C@@H](c3cc(F)cc(F)c3)N1C2=O` [Example 1.38, (S)-1-(6-chloro-5-methylpyrimidin-4-yl)-7′-(3,5-difluorophenyl)dihydro-1′H,3′H,5′H-spiro[piperidine-4,2′-pyrazolo[1,2-a]pyrazol]-1′-one], the EC50 worked out at 0.02 µM.

As for `N#Cc1cc(N2CCC3(CC2)CN2CC[C@@H](c4cc(F)cc(F)c4)N2C3=O)ccn1` [Example 2.4, (S)-4-(7′-(3,5-difluorophenyl)-1′-oxodihydro-l′H,3′H,5′H-spiro[piperidine-4,2′-pyrazolo[1,2-a]pyrazol]-1-yl)picolinonitrile], the EC50 was found to be 0.049 µM.

For the molecule `COc1nc(N2CCC3(CC2)CN2CC[C@@H](c4cc(F)cc(F)c4)N2C3=O)ncc1C` [Example 1.23, (S)-7′-(3,5-difluorophenyl)-1-(4-methoxy-5-methylpyrimidin-2-yl)dihydro-1′H,3′H,5′H-spiro[piperidine-4,2′-pyrazolo[1,2-a]pyrazol]-1′-one], the EC50 turned out to be 0.068 µM.

Consider `CSc1cc(N2CCC3(CC2)CN2CC[C@@H](c4cc(F)cc(F)c4)N2C3=O)ncn1` [Example 1.14, (S)-7′-(3,5-difluorophenyl)-1-(6-(methylthio)pyrimidin-4-yl)dihydro-1′H,3′H,5′H-spiro[piperidine-4,2′-pyrazolo[1,2-a]pyrazol]-1′-one], for which the EC50 stood at 0.017 µM.

`O=C1N2[C@H](c3cc(F)cc(F)c3)CCN2CC12CCN(c1cncc(-n3cccn3)n1)CC2` [Example 1.70, (S)-1-(6-(1H-pyrazol-1-yl)pyrazin-2-yl)-7′-(3,5-difluorophenyl)dihydro-1′H,3′H,5′H-spiro[piperidine-4,2′-pyrazolo[1,2-a]pyrazol]-1′-one]: the EC50 was found to be 0.082 µM.

For the molecule `CSc1cnc(N2CCC3(CC2)CN2CC[C@@H](c4cc(F)cc(F)c4)N2C3=O)cn1` [Example 2.20, (S)-7′-(3,5-difluorophenyl)-1-(5-(methylthio)pyrazin-2-yl)dihydro-l′H,3′H,5′H-spiro[piperidine-4,2′-pyrazolo[1,2-a]pyrazol]-1′-one], the EC50 was found to be 0.03 µM.

As to `Cc1ncc(Cl)nc1N1CCC2(CC1)CN1CC[C@@H](c3cc(F)cc(F)c3)N1C2=O` [Example 1.43, (S)-1-(6-chloro-3-methylpyrazin-2-yl)-7′-(3,5-difluorophenyl)dihydro-1′H,3′H,5′H-spiro[piperidine-4,2′-pyrazolo[1,2-a]pyrazol]-1′-one], the EC50 stood at 0.876 µM.

On to `O=C1N2[C@H](c3cc(F)cc(F)c3)CCN2CC12CCN(c1ncnc3scnc13)CC2` [Example 3.3, (S)-7′-(3,5-difluorophenyl)-1-(thiazolo[5,4-d]pyrimidin-7-yl)dihydro-1′H,3′H,5′H-spiro[piperidine-4,2′-pyrazolo[1,2-a]pyrazol]-1′-one], for which the EC50 worked out at 0.014 µM.

As for `O=C1N2[C@H](c3cc(F)cc(F)c3)CCN2CC12CCN(c1cnc(Cl)cn1)CC2` [Example 1.42, (S)-1-(5-chloropyrazin-2-yl)-7′-(3,5-difluorophenyl)dihydro-1′H,3′H,5′H-spiro[piperidine-4,2′-pyrazolo[1,2-a]pyrazol]-1′-one], the EC50 came to 0.086 µM.

For the molecule `O=C1N2[C@H](c3cc(F)cc(F)c3)CCN2CC12CCN(c1cc(-n3ccnc3)ccn1)CC2` [Example 2.25, (S)-1-(4-(1H-imidazol-1-yl)pyridin-2-y1)-7′-(3,5-difluorophenyl)dihydro-1′H,3′H,5′H-spiro[piperidine-4,2′-pyrazolo[1,2-a]pyrazol]-1′-one], the EC50 came to 0.05 µM.

As for `O=C1N2[C@H](c3cc(F)cc(F)c3)CCN2CC12CCN(c1ccnc3ccnn13)CC2` [Example 2.10, (S)-7′-(3,5-difluorophenyl)-1-(pyrazolo[1,5-a]pyrimidin-7-yl)dihydro-1′H,3′H,5′H-spiro[piperidine-4,2′-pyrazolo[1,2-a]pyrazol]-1′-one], the EC50 turned out to be 0.033 µM.

For the molecule `O=C1N2[C@H](c3cc(F)cc(F)c3)CCN2CC12CCN(c1ccc(OC(F)F)cn1)CC2` [Example 2.21, (S)-1-(5-(difluoromethoxy)pyridin-2-y1)-7′-(3,5-difluorophenyl)dihydro-1′H,3′H,5′H-spiro[piperidine-4,2′-pyrazolo[1,2-a]pyrazol]-1′-one], the EC50 was found to be 0.028 µM.

Consider `N#Cc1cc(F)cc(C(=O)N2CCC3(CC2)CN2CC[C@@H](c4cc(F)cc(F)c4)N2C3=O)c1` [Example 4.7, (S)-3-(7′-(3,5-difluorophenyl)-1′-oxodihydro-1′H,3′H,5′H-spiro[piperidine-4,2′-pyrazolo[1,2-a]pyrazole]-1-carbonyl)-5-fluorobenzonitrile], for which the EC50 was found to be 0.211 µM.

Regarding `CCc1cnc(N2CCC3(CC2)CN2CC[C@@H](c4cc(F)cc(F)c4)N2C3=O)nc1` [Example 1.28, (S)-7′-(3,5-difluorophenyl)-1-(5-ethylpyrimidin-2-yl)dihydro-1′H,3′H,5′H-spiro[piperidine-4,2′-pyrazolo[1,2-a]pyrazol]-1′-one], the EC50 is 0.409 µM.

Consider `O=C1N2[C@H](c3cc(F)cc(F)c3)CCN2CC12CCN(c1noc3ccccc13)CC2` [Example 1.81, (S)-1-(benzo[d]isoxazol-3-yl)-7′-(3,5-difluorophenyl)dihydro-1′H,3′H,5′H-spiro[piperidine-4,2′-pyrazolo[1,2-a]pyrazol]-1′-one], for which the EC50 amounted to 0.366 µM.

For `O=C1N2[C@H](c3cc(F)cc(F)c3)CCN2CC12CCN(c1nc3ccccc3o1)CC2` [Example 1.80, (S)-1-(benzo[d]oxazol-2-yl)-7′-(3,5-difluorophenyl)dihydro-1′H,3′H,5′H-spiro[piperidine-4,2′-pyrazolo[1,2-a]pyrazol]-1′-one], the EC50 was determined as 0.05 µM.

One may read the EC50 as the concentration at which the effect is half-maximal.
